Assay results from ChEMBL document CHEMBL1128816, “Synthesis and structure-activity relationships of new acetylcholinesterase inhibitors: Morpholinoalkylcarbamoyloxyeseroline derivatives” (Bioorg Med Chem Lett, 1995).

Target: Acetylcholinesterase (Homo sapiens, UniProt P22303)
Test: Inhibition of Acetylcholinesterase (AChE) from human RBC

Sequence of Acetylcholinesterase (P22303 whole entry): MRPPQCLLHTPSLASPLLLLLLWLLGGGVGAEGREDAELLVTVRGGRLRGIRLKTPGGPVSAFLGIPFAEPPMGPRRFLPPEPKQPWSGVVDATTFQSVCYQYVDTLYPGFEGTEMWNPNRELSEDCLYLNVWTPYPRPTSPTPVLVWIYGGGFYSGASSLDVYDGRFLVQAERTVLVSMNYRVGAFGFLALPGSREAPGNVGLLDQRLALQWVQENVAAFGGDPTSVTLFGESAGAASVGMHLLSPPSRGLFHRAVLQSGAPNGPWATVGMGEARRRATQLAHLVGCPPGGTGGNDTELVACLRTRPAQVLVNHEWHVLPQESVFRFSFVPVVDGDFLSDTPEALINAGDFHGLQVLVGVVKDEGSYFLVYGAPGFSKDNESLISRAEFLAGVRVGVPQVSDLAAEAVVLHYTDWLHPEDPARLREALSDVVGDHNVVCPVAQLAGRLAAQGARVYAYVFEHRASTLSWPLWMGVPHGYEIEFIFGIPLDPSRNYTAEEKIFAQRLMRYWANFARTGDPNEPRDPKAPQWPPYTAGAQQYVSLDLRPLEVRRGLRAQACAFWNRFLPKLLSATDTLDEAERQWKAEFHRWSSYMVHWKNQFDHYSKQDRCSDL

SMILES | IC50 [µM]
CN1CC[C@@]2(C)c3cc(OC(=O)NCCCCCCCCN4CCOCC4)ccc3N(C)[C@@H]12 | 0.08
CN1CC[C@@]2(C)c3cc(OC(=O)NCCCCN4CCOCC4)ccc3N(C)[C@@H]12 | 21
